Legend:
M3-receptor = target: T1, M3-receptor (Homo sapiens, UniProt P20309); test: [3H]-NMS equilibrium radioligand binding, M3
T1 construct: expressed in transfected cells
Experimental: (§1) Non-specific binding (NSB) was determined in the presence of 1 μM atropine). Reactions were terminated by rapid filtration onto GF/B filter paper (Whatman, Maidstone, UK) and three washes with 3 mL ice-cold 0.9% NaCl using a Brandel harvester (M-24TI; Brandel, Fort Lauderdale, FL). Membrane bound radioactivity was determined by liquid scintillation (Ultima Gold; PerkinElmer) counting.
(§2) Data was analyzed using PRISM (GraphPad). For saturation binding, non-specific and total binding data were analyzed to a one site binding model. DPM was converted to fmol/mg to compare across constructs. […] […] The Cheng Prusoff equation was used to estimate pKi ([Cheng and Prusoff, 1973]).

Wistar rats = test: Open field exploratory behaviour; format: in vivo; conditions: rat
Experimental: During the rat passive avoidance testing, open field exploratory behavior was measured on study days 4 and 5 (acclimatisation and handling), 6 (training) and 7 (recall). The open field apparatus consisted of black-painted Perspex 620 mm^2 with walls 300 mm high. Locomotor activity, measured as the distance traveled in a 300 s period, as well as incidences of rearing and grooming were recorded, using Ethovision XT tracking software (Noldus UK).

human M1 receptor [1] = target: T2, human M1 receptor (Homo sapiens, UniProt P11229); test: pERK1/2 assay in CHO cells overexpressing human M1-receptor; format: cell-based
T2 construct: expressed in transfected cells
T2 sequence (P11229 1-460): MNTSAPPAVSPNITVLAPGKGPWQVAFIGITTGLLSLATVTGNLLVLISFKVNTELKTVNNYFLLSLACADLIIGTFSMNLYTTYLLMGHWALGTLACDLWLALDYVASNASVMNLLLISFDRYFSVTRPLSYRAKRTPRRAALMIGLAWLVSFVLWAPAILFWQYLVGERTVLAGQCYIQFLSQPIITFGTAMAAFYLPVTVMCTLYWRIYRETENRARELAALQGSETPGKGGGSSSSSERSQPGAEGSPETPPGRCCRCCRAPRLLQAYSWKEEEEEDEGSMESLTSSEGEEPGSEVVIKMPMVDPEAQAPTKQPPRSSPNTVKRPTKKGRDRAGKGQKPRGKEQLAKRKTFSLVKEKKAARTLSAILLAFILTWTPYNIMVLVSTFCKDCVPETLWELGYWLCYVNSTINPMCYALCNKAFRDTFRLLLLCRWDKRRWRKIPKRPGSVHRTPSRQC

M2-receptor = target: T3, M2-receptor (Homo sapiens, UniProt P08172); test: [3H]-NMS equilibrium radioligand binding, M2
T3 sequence (P08172 1-466): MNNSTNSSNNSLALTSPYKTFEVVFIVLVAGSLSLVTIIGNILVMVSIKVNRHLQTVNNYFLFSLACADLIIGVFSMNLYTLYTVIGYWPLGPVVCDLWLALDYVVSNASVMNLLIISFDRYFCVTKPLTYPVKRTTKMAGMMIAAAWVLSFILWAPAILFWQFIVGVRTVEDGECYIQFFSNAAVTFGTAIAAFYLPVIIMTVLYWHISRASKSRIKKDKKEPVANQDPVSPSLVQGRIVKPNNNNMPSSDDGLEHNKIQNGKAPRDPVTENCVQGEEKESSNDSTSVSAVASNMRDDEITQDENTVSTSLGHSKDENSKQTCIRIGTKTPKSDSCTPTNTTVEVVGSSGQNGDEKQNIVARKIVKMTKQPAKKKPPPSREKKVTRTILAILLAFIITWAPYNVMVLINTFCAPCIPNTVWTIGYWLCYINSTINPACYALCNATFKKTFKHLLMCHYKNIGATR
Experimental: as §1, §2

[2] = First-time-in-human single ascending dose safety; format: in vivo; conditions: plasma, oral, 175 mg; human SAD; read-out: Cmax at which cholinergic side effects were recorded
Description: (§3) HTL9936 was progressed into a randomized, double blind, placebo controlled, first time-in-human (FTIH) ascending single and multiple oral dose study in healthy young adult male volunteers and healthy elderly male and female volunteers. (ClinicalTrials.gov Identifier: NCT02291783).
(§4) The required amount of sterile solution was subsequently injected into the infusion bag containing sodium chloride 0.9%w/v infusion fluid to provide the required dose for IV administration.

healthy volunteers = test: First-time-in-human single ascending dose safety; format: in vivo
Description: as §3, §4

human M1 receptor [3] = target: T2, human M1 receptor; test: Label-free dynamic mass redistribution in CHO cells overexpressing human M1-receptor; format: cell-based
rat M1-receptor = target: T4, rat M1-receptor (Rattus norvegicus, UniProt P08482); test: Recombinant rat M1-receptor functional assay; format: cell-based
T4 construct: expressed in transfected cells; host or cells: not described

[4] = 4-day repeat dose tolerability assessment in dogs; conditions: beagle, dog
locomotor activity = test: Locomotor activity alone or with amphetamine; format: in vivo; conditions: doses up to 100 mg/kg

T1 sequence (P20309 whole entry): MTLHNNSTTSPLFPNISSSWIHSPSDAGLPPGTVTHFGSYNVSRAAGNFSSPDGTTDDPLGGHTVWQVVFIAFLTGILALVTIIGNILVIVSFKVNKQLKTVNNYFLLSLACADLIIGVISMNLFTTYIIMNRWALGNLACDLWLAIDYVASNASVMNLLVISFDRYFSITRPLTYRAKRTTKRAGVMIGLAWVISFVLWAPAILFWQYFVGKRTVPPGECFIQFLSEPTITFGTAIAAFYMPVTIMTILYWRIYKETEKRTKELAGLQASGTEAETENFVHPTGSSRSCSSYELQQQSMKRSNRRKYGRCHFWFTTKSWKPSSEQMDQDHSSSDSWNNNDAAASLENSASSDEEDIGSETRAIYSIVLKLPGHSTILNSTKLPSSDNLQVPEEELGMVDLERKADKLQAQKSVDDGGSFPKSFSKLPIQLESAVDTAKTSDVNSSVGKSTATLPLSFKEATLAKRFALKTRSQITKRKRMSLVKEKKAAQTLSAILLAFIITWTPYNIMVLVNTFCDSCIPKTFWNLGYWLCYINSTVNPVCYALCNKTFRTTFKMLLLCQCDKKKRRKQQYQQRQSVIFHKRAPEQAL
T4 sequence (P08482 whole entry): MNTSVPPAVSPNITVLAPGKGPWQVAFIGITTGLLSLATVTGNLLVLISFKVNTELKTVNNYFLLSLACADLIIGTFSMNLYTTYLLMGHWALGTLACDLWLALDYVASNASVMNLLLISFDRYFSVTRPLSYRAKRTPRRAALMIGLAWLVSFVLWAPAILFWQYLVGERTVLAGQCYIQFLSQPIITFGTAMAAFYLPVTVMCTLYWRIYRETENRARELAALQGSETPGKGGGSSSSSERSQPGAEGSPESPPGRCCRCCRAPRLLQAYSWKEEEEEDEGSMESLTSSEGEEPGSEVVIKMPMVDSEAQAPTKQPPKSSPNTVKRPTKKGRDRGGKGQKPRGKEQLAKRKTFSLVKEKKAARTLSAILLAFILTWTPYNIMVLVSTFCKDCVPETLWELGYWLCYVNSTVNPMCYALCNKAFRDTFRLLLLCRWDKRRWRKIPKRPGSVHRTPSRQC

SMILES: CCOC(=O)N1CCC[C@H](N2CCC(C(=O)NC3(C)CCC3)CC2)CC1 [HTL9936, ethyl (S)-4-(4-((1-methylcyclobutyl)carbamoyl)piperidin-1-yl)azepane-1-carboxylate]
- Binding to the M3-receptor (M3-receptor): no detectable binding
- Open-field exploratory behavior (Wistar rats): no difference in effect
- EC50 (human M1 receptor [1]): 32 nM
- Ki (M2-receptor): 3160 nM
- Cmax [2]: 242 ng/mL
- Subjects with mild cholinergic responses (salivation, sweating, blood pressure/heart rate changes) (healthy volunteers; human SAD, 175 mg cohort): 3/5
- Serious adverse events leading to withdrawal (healthy volunteers; human SAD, 1−100mg oral): no serious adverse events
- Margin of 242 ng/mL over plasma minimal effective concentration in aged beagle DNMP (healthy volunteers; human vs dog 58 ng/mL): about 5 ×
- Estimated unbound brain exposure at plasma Cmax of 242 ng/mL (healthy volunteers; human, from CSF to plasma ratios 1 to 3 h): 0.072 to 0.259 µM
- EC50 (human M1 receptor [3]): 79 nM
- Agonist behaviour at the rat receptor (rat M1-receptor): partial agonist
- Cmax at 4 day ([4]; plasma): > 32000 ng/mL
- concentration at 4 day ([4]; plasma (unbound)): 60 µM
- Adverse responses and locomotor activity (locomotor activity): no adverse responses nor had any effect on locomotor activity

Source: PMC7616177, “From structure to clinic: Design of a muscarinic M1 receptor agonist with the potential to treat Alzheimer’s disease” (Cell, 2021)
